# Values quoted from earlier work in patent US5876715A, “Antibodies that bind novel carbohydrate ligands (myelorollins) that cause E-selectin dependent cell rolling, and uses thereof” (The Biomembrane Institute, priority 1996, dated 1999).
# What was measured:
# [1] = rat, IgG immune complex lung injury; Mulligan et al. 1993; cited from earlier work
# [2] = tested on: E-selectin expressing CHO cells; settings: shear stress of 0.78 dyne/cm^2; J. Immunol. 154:5356-5366 (1995); cited from earlier work
substance,measurement,setting,value
IV^3 NeuAcIII^3 FucnLc4 Cer [SLe^x],effect against inflammatory vascular injury,[1],provides protective effects against inflammatory vascular injury
same,tethering of E-selectin expressing CHO cells,[2],tethered
